Laboratory results as given in patent US20200369728A1, “PEPTIDOMIMETIC MACROCYCLES AND USES THEREOF” (Aileron Therapeutics, Inc., priority 2015, published 2020).
Bridge positions count the residues as written; N and C are the ends. Square brackets hold non-standard residues; d marks the D form. Peptide text beside a SMILES is read from it. R8 = C=CCCCCCC[C@@](C)(N)C(=O)O; hLeu = CC(C)CC[C@H](N)C(=O)O; S5 = C=CCCC[C@](C)(N)C(=O)O

What was measured:
Caspase 3 = Caspase 3 detection assay in SJSA1 cells; assay type: cell-based; conditions: SJSA1, 48 h, Caspase 3 activation over DMSO-treated cells
RKO = test: Cell viability assay (MTT), RKO; conditions: read-out: RKO EC50 (72 h)
SJSA-1 cells = test: Cell lysis by peptidomimetic macrocycles (LDH release); assay type: cell-based; conditions: SJSA-1, 1 h
Summary of the method: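 Membrane lysis measured as supernatant LDH after a 1 h, 37 °C exposure of SJSA-1 cells, held in RPMI with 1% FBS, to macrocycles at final 6.25-50 μM with 0.5% DMSO. Lytic references were 10 μM melittin and 1% Triton X-100; DMSO alone served as non-lytic control.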

SMILES	caspase 0.3 μM (Caspase 3)	caspase 1 μM (Caspase 3)	caspase 3 μM (Caspase 3)	caspase 10 μM (Caspase 3)	caspase 30 μM (Caspase 3)	EC50 (RKO)	6.25 μM % Lysed cells (1 h LDH) (SJSA-1 cells)	25 μM % Lysed cells (1 h LDH) (SJSA-1 cells)	50 μM % Lysed cells (1 h LDH) (SJSA-1 cells)
CC(=O)N[C@@H](CC(C)C)C(=O)N[C@H](C(=O)N[C@@H](Cc1ccccc1)C(=O)N[C@]1(C)CCCCCC/C=C/CCC[C@@](C)(C(=O)N[C@@H](C)C(=O)N[C@@H](C)C(=O)N[C@@H](C)C(=O)N[C@@H](C)C(=O)N[C@@H](C)C(=O)N[C@H](C)C(N)=O)NC(=O)[C@H](CC2CCC2)NC(=O)[C@H](CCC(N)=O)NC(=O)[C@H](C)NC(=O)[C@H](Cc2c[nH]c3ccccc23)NC(=O)[C@H](Cc2ccc(C(=O)O)cc2)NC(=O)[C@H](CCC(=O)O)NC1=O)[C@@H](C)O [compound 349]	1	8	11	16	24	5 to 15 µM	0%	0%	0%
CC(=O)N[C@@H](CC(C)C)C(=O)N[C@H](C(=O)N[C@@H](Cc1ccccc1)C(=O)N[C@]1(C)CCCCCCC=CCCC[C@@](C)(C(=O)N[C@@H](CO)C(=O)N[C@@H](C)C(=O)N[C@@H](CC(C)C)C(N)=O)NC(=O)[C@H](CC(C)C)NC(=O)[C@H](CCC(N)=O)NC(=O)[C@H](C)NC(=O)[C@H](Cc2c[nH]c3ccccc23)NC(=O)[C@H](Cc2ccc(O)cc2)NC(=O)[C@H](C)NC1=O)[C@@H](C)O [compound 4] (Ac-LTF[R8]AYWAQL[S5]SAL-NH2; staple 4-11)	–	–	9	37	35	< 5 µM	−2%	1%	2%
CC[C@H](C)[C@H](NC(=O)[C@H](C)NC(=O)[C@H](C)NC(=O)[C@]1(C)CCCC=CCCCCCC[C@@](C)(NC(=O)[C@H](Cc2ccccc2)NC(=O)[C@@H](NC(=O)[C@H](CC(C)C)NC(C)=O)[C@@H](C)O)C(=O)N[C@@H](C)C(=O)N[C@@H](Cc2ccc(O)cc2)C(=O)N[C@@H](Cc2c[nH]c3ccccc23)C(=O)N[C@@H](C)C(=O)N[C@@H](CCC(N)=O)C(=O)N[C@@H](CC(C)C)C(=O)N1)C(=O)N[C@H](CC(C)C)C(N)=O (single isomer, unassigned) [compound 81]	1	–	1	6	21	5 to 15 µM	1%	0%	0%
CC(=O)N[C@@H](CC(C)C)C(=O)N[C@H](C(=O)N[C@@H](Cc1ccccc1)C(=O)N[C@]1(C)CCCCCCC=CCCC[C@@](C)(C(=O)N[C@@H](CO)C(=O)N[C@@H](C)C(=O)N[C@@H](C)C(N)=O)NC(=O)[C@H](CC(C)C)NC(=O)[C@H](C)NC(=O)[C@H](C(C)C)NC(=O)[C@H](Cc2c[nH]c3ccccc23)NC(=O)[C@H](Cc2ccc(O)cc2)NC(=O)[C@H](C)NC1=O)[C@@H](C)O [compound 196] (Ac-LTF[R8]AYWVAL[S5]SAA-NH2; staple 4-11)	1	–	4	33	26	< 5 µM	0%	0%	3%
CC(=O)N[C@@H](CC(C)C)C(=O)N[C@H](C(=O)N[C@@H](Cc1ccccc1)C(=O)N[C@]1(C)CCCCCCC=CCCC[C@@](C)(C(=O)N[C@@H](C)C(=O)N[C@@H](C)C(=O)N[C@@H](Cc2ccccc2)C(=O)N[C@H](C)C(N)=O)NC(=O)[C@H](CC(C)C)NC(=O)[C@H](CCC(N)=O)NC(=O)[C@H](C)NC(=O)[C@H](Cc2c[nH]c3ccccc23)NC(=O)[C@H](Cc2ccc(O)cc2)NC(=O)[C@H](CCC(=O)O)NC1=O)[C@@H](C)O (single isomer, unassigned) [compound 219]	1	–	5	17	34	5 to 15 µM	0%	−1%	2%
CC(=O)N[C@@H](CC(C)C)C(=O)N[C@H](C(=O)N[C@@H](Cc1ccccc1)C(=O)N[C@]1(C)CCCCCCC=CCCC[C@@](C)(C(=O)N[C@@H](CO)C(=O)N[C@@H](CC(C)C)C(=O)N[C@@H](C)C(N)=O)NC(=O)[C@H](CC(C)C)NC(=O)[C@H](CCC(N)=O)NC(=O)[C@H](C)NC(=O)[C@H](Cc2c[nH]c3ccccc23)NC(=O)[C@H](Cc2ccc(O)cc2)NC(=O)[C@H](C)NC1=O)[C@@H](C)O (single isomer, unassigned) [compound 118]	1	–	2	18	27	< 5 µM	4%	2%	4%
CC(=O)N[C@@H](CC(C)C)C(=O)N[C@H](C(=O)N[C@@H](Cc1ccccc1)C(=O)N[C@]1(C)CCCCCCC=CCCC[C@@](C)(C(=O)N[C@@H](CO)C(=O)N[C@H](C(=O)N[C@@H](CO)C(N)=O)C(C)C)NC(=O)[C@H](CC(C)C)NC(=O)[C@H](CCC(N)=O)NC(=O)[C@H](C)NC(=O)[C@H](Cc2c[nH]c3ccccc23)NC(=O)[C@H](Cc2ccc(O)cc2)NC(=O)[C@H](C)NC1=O)[C@@H](C)O [compound 121] (Ac-LTF[R8]AYWAQL[S5]SVS-NH2; staple 4-11)	1	–	5	19	30	< 5 µM	1%	1%	7%
CC(=O)N[C@@H](CC(C)C)C(=O)N[C@H](C(=O)N[C@@H](Cc1ccc(F)c(F)c1)C(=O)N[C@]1(C)CCCCCCC=CCCC[C@@](C)(C(=O)N[C@@H](CO)C(=O)N[C@@H](C)C(=O)N[C@@H](C)C(N)=O)NC(=O)[C@H](CC(C)C)NC(=O)[C@H](CCC(N)=O)NC(=O)[C@H](C)NC(=O)[C@H](Cc2c[nH]c3ccccc23)NC(=O)[C@H](Cc2ccc(O)cc2)NC(=O)[C@H](CCC(=O)O)NC1=O)[C@@H](C)O (single isomer, unassigned) [compound 158]	1	–	1.67	5	16.33	> 30 µM	0%	−2%	–
CC(=O)N[C@@H](CC(C)C)C(=O)N[C@H](C(=O)N[C@@H](Cc1ccccc1)C(=O)N[C@]1(C)CCCCCC/C=C\CCC[C@@](C)(C(=O)N[C@@H](CO)C(=O)N[C@@H](C)C(=O)N[C@@H](C)C(N)=O)NC(=O)[C@H](CCC(C)C)NC(=O)[C@H](CCC(N)=O)NC(=O)[C@H](C)NC(=O)[C@H](Cc2c[nH]c3ccccc23)NC(=O)[C@H](Cc2ccc(O)cc2)NC(=O)[C@H](C)NC1=O)[C@@H](C)O [compound 114] (Ac-LTF[R8]AYWAQ[hLeu][S5]SAA-NH2; staple (Z) 4-11)	1	–	6	28	34	5 to 15 µM	3%	4%	9%
CC(=O)N[C@@H](C)C(=O)N[C@@H](CC(C)C)C(=O)N[C@H](C(=O)N[C@@H](Cc1ccccc1)C(=O)N[C@]1(C)CCCCCCC=CCCC[C@@](C)(C(=O)N[C@@H](CO)C(=O)N[C@@H](C)C(=O)N[C@@H](C)C(=O)N[C@H](C)C(N)=O)NC(=O)[C@H](CC2CCC2)NC(=O)[C@H](CCC(N)=O)NC(=O)[C@H](C)NC(=O)[C@H](Cc2c[nH]c3ccccc23)NC(=O)[C@H](Cc2ccc(O)cc2)NC(=O)[C@H](CCC(=O)O)NC1=O)[C@@H](C)O (single isomer, unassigned) [compound 355]	1	4	11	13	30	15 to 30 µM	0%	0%	0%
CC(=O)N[C@@H](CCC(=O)O)C(=O)N[C@H](C(=O)N[C@@H](Cc1ccccc1)C(=O)N[C@]1(C)CCCCCCC=CCCC[C@@](C)(C(=O)N[C@@H](C)C(=O)N[C@@H](C)C(=O)N[C@@H](C)C(=O)N[C@@H](C)C(=O)N[C@@H](C)C(=O)N[C@H](C)C(N)=O)NC(=O)[C@H](CC(C)C)NC(=O)[C@H](CCC(N)=O)NC(=O)[C@H](C)NC(=O)[C@H](Cc2c[nH]c3ccccc23)NC(=O)[C@H](Cc2ccc(O)cc2)NC(=O)[C@H](CCC(=O)O)NC1=O)[C@@H](C)O (single isomer, unassigned) [compound 341]	3	8	11	14	21	15 to 30 µM	0%	0%	0%
CC(=O)N[C@@H](CC(C)C)C(=O)N[C@H](C(=O)N[C@@H](Cc1ccccc1)C(=O)N[C@]1(C)CCCCCCC=CCCC[C@@](C)(C(=O)N[C@@H](CO)C(=O)N[C@@H](C)C(=O)N[C@@H](C)C(N)=O)NC(=O)[C@H](C2CCCC2)NC(=O)[C@H](CCC(N)=O)NC(=O)[C@H](C)NC(=O)[C@H](Cc2c[nH]c3ccccc23)NC(=O)[C@H](Cc2ccc(O)cc2)NC(=O)[C@H](CCC(=O)O)NC1=O)[C@@H](C)O (single isomer, unassigned) [compound 150]	–	–	–	–	–	15 to 30 µM	−1%	0%	2%
